PubChem BioAssay (NCI)
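Five compound concentrations were applied to cells in 96-well plates for 48 hours; endpoints were derived by simple linear interpolation of the resulting dose-response curve. TGI: concentration producing complete growth inhibition.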

Tests used:
Assay in all cases: DTP human tumour cell line panel, 48 h
786-0 renal = system: 786-0 renal
A498 renal = system: A498 renal
A549 NSCLC = system: A549 NSCLC
ACHN renal = system: ACHN renal
CAKI-1 renal = system: CAKI-1 renal
CCRF-CEM leukemia = system: CCRF-CEM leukemia
COLO 205 colon = system: COLO 205 colon
DLD-1 colon = system: DLD-1 colon
DMS 114 small cell lung = system: DMS 114 small cell lung
DMS 273 small cell lung = system: DMS 273 small cell lung
EKVX NSCLC = system: EKVX NSCLC
HCC-2998 colon = system: HCC-2998 colon
HCT-116 colon = system: HCT-116 colon
HCT-15 colon = system: HCT-15 colon
HL-60(TB) leukemia = system: HL-60(TB) leukemia
HOP-18 NSCLC = system: HOP-18 NSCLC
HOP-92 NSCLC = system: HOP-92 NSCLC
HT29 colon = system: HT29 colon
IGROV1 ovarian = system: IGROV1 ovarian
K-562 leukemia = system: K-562 leukemia
KM12 colon = system: KM12 colon
KM20L2 colon = system: KM20L2 colon
LOX IMVI melanoma = system: LOX IMVI melanoma
LXFL 529 NSCLC = system: LXFL 529 NSCLC
M14 melanoma = system: M14 melanoma
M19-MEL melanoma = system: M19-MEL melanoma
MALME-3M melanoma = system: MALME-3M melanoma
MOLT-4 leukemia = system: MOLT-4 leukemia
NCI-H226 lung = system: NCI-H226 lung
NCI-H23 lung = system: NCI-H23 lung
NCI-H460 lung = system: NCI-H460 lung
NCI-H522 lung = system: NCI-H522 lung
OVCAR-3 ovarian = system: OVCAR-3 ovarian
OVCAR-4 ovarian = system: OVCAR-4 ovarian
OVCAR-5 ovarian = system: OVCAR-5 ovarian
OVCAR-8 ovarian = system: OVCAR-8 ovarian
RPMI-8226 leukemia = system: RPMI-8226 leukemia
RXF 393 renal = system: RXF 393 renal
SF-268 CNS = system: SF-268 CNS
SF-295 CNS = system: SF-295 CNS
SF-539 CNS = system: SF-539 CNS
SK-MEL-2 melanoma = system: SK-MEL-2 melanoma
SK-MEL-28 melanoma = system: SK-MEL-28 melanoma
SK-MEL-5 melanoma = system: SK-MEL-5 melanoma
SK-OV-3 ovarian = system: SK-OV-3 ovarian
SN12C renal = system: SN12C renal
SNB-19 CNS = system: SNB-19 CNS
SNB-75 CNS = system: SNB-75 CNS
SNB-78 CNS = system: SNB-78 CNS
SR leukemia = system: SR leukemia
SW-620 colon = system: SW-620 colon
TK-10 renal = system: TK-10 renal
U251 CNS = system: U251 CNS
UACC-257 melanoma = system: UACC-257 melanoma
UACC-62 melanoma = system: UACC-62 melanoma
UO-31 renal = system: UO-31 renal
XF 498 CNS = system: XF 498 CNS
HOP-62 NSCLC = system: HOP-62 NSCLC

COc1ccc(NS(=O)(=O)c2ccc(N=C3C=C(Nc4ccc(S(=O)(=O)Nc5ccc(OC)nn5)cc4)C(=O)c4ccccc43)cc2)nn1
TGI (786-0 renal): 31.7 µM
TGI (A498 renal): 29 µM
TGI (A549 NSCLC): 32.2 µM
TGI (ACHN renal): 37.8 µM
TGI (CAKI-1 renal): 40.7 µM
TGI (CCRF-CEM leukemia): > 100 µM
TGI (COLO 205 colon): 32.5 µM
TGI (DLD-1 colon): 36.9 µM
TGI (DMS 114 small cell lung): 66.7 µM
TGI (DMS 273 small cell lung): 28.4 µM
TGI (EKVX NSCLC): 63.1 µM
TGI (HCC-2998 colon): 34.1 µM
TGI (HCT-116 colon): 32 µM
TGI (HCT-15 colon): 32.4 µM
TGI (HL-60(TB) leukemia): > 100 µM
TGI (HOP-18 NSCLC): 29.7 µM
TGI (HOP-92 NSCLC): 88.8 µM
TGI (HT29 colon): 36.2 µM
TGI (IGROV1 ovarian): 45.7 µM
TGI (K-562 leukemia): > 100 µM
TGI (KM12 colon): 30.5 µM
TGI (KM20L2 colon): 31.8 µM
TGI (LOX IMVI melanoma): 30.4 µM
TGI (LXFL 529 NSCLC): 57.9 µM
TGI (M14 melanoma): 31.3 µM
TGI (M19-MEL melanoma): 30.6 µM
TGI (MALME-3M melanoma): 33.1 µM
TGI (MOLT-4 leukemia): > 100 µM
TGI (NCI-H226 lung): 34.2 µM
TGI (NCI-H23 lung): 29.7 µM
TGI (NCI-H460 lung): 31.5 µM
TGI (NCI-H522 lung): 31.8 µM
TGI (OVCAR-3 ovarian): 44.8 µM
TGI (OVCAR-4 ovarian): 50.4 µM
TGI (OVCAR-5 ovarian): 34.1 µM
TGI (OVCAR-8 ovarian): 34.8 µM
TGI (RPMI-8226 leukemia): > 100 µM
TGI (RXF 393 renal): 32.8 µM
TGI (SF-268 CNS): 52.9 µM
TGI (SF-295 CNS): 32.1 µM
TGI (SF-539 CNS): 31.6 µM
TGI (SK-MEL-2 melanoma): 33.2 µM
TGI (SK-MEL-28 melanoma): 31.4 µM
TGI (SK-MEL-5 melanoma): 35 µM
TGI (SK-OV-3 ovarian): 33.1 µM
TGI (SN12C renal): 38.6 µM
TGI (SNB-19 CNS): 33.4 µM
TGI (SNB-75 CNS): 35.1 µM
TGI (SNB-78 CNS): > 100 µM
TGI (SR leukemia): > 100 µM
TGI (SW-620 colon): 32.9 µM
TGI (TK-10 renal): 40 µM
TGI (U251 CNS): 33.2 µM
TGI (UACC-257 melanoma): 35.8 µM
TGI (UACC-62 melanoma): 32.6 µM
TGI (UO-31 renal): 37.8 µM
TGI (XF 498 CNS): 54.3 µM

CCCCC(N)CSSCC(N)CCCC (stereo not given)
TGI (786-0 renal): 32.8 µM
TGI (A498 renal): 57.4 µM
TGI (A549 NSCLC): > 100 µM
TGI (ACHN renal): > 100 µM
TGI (CCRF-CEM leukemia): 64.2 µM
TGI (COLO 205 colon): > 100 µM
TGI (DLD-1 colon): 60.3 µM
TGI (DMS 114 small cell lung): 37.1 µM
TGI (DMS 273 small cell lung): 45.6 µM
TGI (EKVX NSCLC): 61.8 µM
TGI (HCC-2998 colon): 35.4 µM
TGI (HCT-116 colon): 31.8 µM
TGI (HCT-15 colon): 63.2 µM
TGI (HL-60(TB) leukemia): 40.1 µM
TGI (HOP-18 NSCLC): > 100 µM
TGI (HOP-62 NSCLC): 95.4 µM
TGI (HT29 colon): 50.8 µM
TGI (IGROV1 ovarian): > 100 µM
TGI (K-562 leukemia): 57 µM
TGI (KM12 colon): > 100 µM
TGI (LOX IMVI melanoma): 32.1 µM
TGI (LXFL 529 NSCLC): 31.2 µM
TGI (M14 melanoma): 38.2 µM
TGI (M19-MEL melanoma): 56.9 µM
TGI (MALME-3M melanoma): 32.6 µM
TGI (MOLT-4 leukemia): 47.9 µM
TGI (NCI-H226 lung): 43.6 µM
TGI (NCI-H23 lung): 55.4 µM
TGI (NCI-H460 lung): > 100 µM
TGI (NCI-H522 lung): 29.7 µM
TGI (OVCAR-3 ovarian): 47.2 µM
TGI (OVCAR-4 ovarian): 32.6 µM
TGI (OVCAR-5 ovarian): 38.1 µM
TGI (OVCAR-8 ovarian): > 100 µM
TGI (RPMI-8226 leukemia): 61.5 µM
TGI (SF-268 CNS): 61.5 µM
TGI (SF-295 CNS): > 100 µM
TGI (SF-539 CNS): 47.8 µM
TGI (SK-MEL-2 melanoma): 36.7 µM
TGI (SK-MEL-28 melanoma): 34.8 µM
TGI (SK-MEL-5 melanoma): 55.7 µM
TGI (SK-OV-3 ovarian): > 100 µM
TGI (SN12C renal): 36.1 µM
TGI (SNB-19 CNS): > 100 µM
TGI (SNB-75 CNS): > 100 µM
TGI (SNB-78 CNS): 98.5 µM
TGI (SR leukemia): 45.7 µM
TGI (SW-620 colon): 58 µM
TGI (TK-10 renal): > 100 µM
TGI (UACC-257 melanoma): 44.9 µM
TGI (UACC-62 melanoma): 41.1 µM
TGI (UO-31 renal): 47.1 µM
TGI (XF 498 CNS): 34.9 µM
